Data published in patent US20100143995A1, “Process for Fermentive Preparation of Alcohols and Recovery of Product” (E. I. DU PONT DE NEMOURS AND COMPANY, priority 2008, published 2010).

Legend:
[1] = Extraction of ethanol from an aqueous solution by ionic liquid (HPLC); assay type: physicochemical; settings: ethanol in aqueous solution after mixing 3 mL of about 31 g/L ethanol with 150 microliters (5 vol %) ionic liquid, overnight equilibration, control 655
Method: (§1) Ethanol and isobutanol concentration in the solution was measured using HPLC as described above following thorough mixing and overnight equilibration of the contents of the vial.

[2] = Extraction of isobutanol from an aqueous solution by ionic liquid (HPLC); assay type: physicochemical; settings: isobutanol in aqueous solution after mixing 3 mL of about 31 g/L isobutanol with 150 microliters (5 vol %) ionic liquid, overnight equilibration, control 436
Method: as §1

[3] = test system: Saccharomyces cerevisiae (W1362 20A); assay: Glucose Uptake Index of Saccharomyces cerevisiae culture in YPD medium with ionic liquid added; settings: 5% (v/v) ionic liquid added after 4 h, further 16 h at 30° C., GUI of control without ionic liquid 79.0 (Ex. 1-5) or 100 (Ex. 6-8)

Compound	mM Ethanol [1] [mM]	GUI of Sample (Glucose Utilization Index in the presence of 5% (v/v) of the ionic liquid phase) [3]	mM isobutanol [2] [mM]	also measured
1-Butyl-3-methylimidazolium levulinate [Example 5]	596			
CCOCC[N+](C)(C)CCN1C(=O)CCC1C (centres unmarked) [Example 2, 1-(N,N,N-dimethyl(ethylethoxy)aminoethyl)-5-methyl-pyrrolidine-2-one hexafluoropropanesulfonate]		34.0		mM Ethanol ([1]; listed as [MeDMEEAP] [HFPS]): 656 mM; mM isobutanol ([2]; listed as [MeDMEEAP] [HFPS]): 422 mM
CCOCC[N+](C)(C)CCN1C(=O)CCC1C (centres unmarked) [Example 3, 1-(N,N,N-dimethyl(ethylethoxy)aminoethyl)-5-methyl-pyrrolidine-2-one bis(trifluoromethane)sulfonamide]		80.4		mM Ethanol ([1]; listed as [MeDMEEAP] [Tf2N]): 637 mM; mM isobutanol ([2]; listed as [MeDMEEAP] [Tf2N]): 398 mM
COCC[N+](C)(C)CCN1C(=O)CCC1C (centres unmarked) [Example 4, 1-(N,N,N-dimethyl(methylethoxy)aminoethyl)-5-methylpyrrolidin-2-one hexafluoropropanesulfonate]	645	21.9	423	
CCC[N+](C)(C)CCN1C(=O)CCC1C.O=S(=O)([N-]S(=O)(=O)C(F)(F)F)C(F)(F)F (centres unmarked) [Example 6, 1-(N,N,N-dimethylpropylaminoethyl)-5-methylpyrrolidone-2-one bis(trifluoromethane)sulfonamide]		100	387	
COCC[N+](C)(C)CCN1C(=O)CCC1C.O=S(=O)([N-]S(=O)(=O)C(F)(F)F)C(F)(F)F (centres unmarked) [Example 7, 1-(N,N,N-dimethyl(methylethoxy)aminoethyl)-5-methylpyrrolidone-2-one bis(trifluoromethane)sulfonamide]	643	100	389	
CC1CCC(=O)N1CC[N+](C)(C)CCO.O=S(=O)([N-]S(=O)(=O)C(F)(F)F)C(F)(F)F (centres unmarked) [Example 8, 1-(N,N,N-dimethyl(hydroxyethyl)aminoethyl)-5-methylpyrrolidone-2-one bis(trifluoromethane)sulfonamide]		89.3	417	
